From patent US11130741B2 (Bioimics AB, priority 2016, dated 2021) come the findings set out here.

≈ marks a conversion by molar mass, not a printed value. Where a name gives a salt, the structure may show the parent alone. Read-outs that look alike come from different tables or passages of the source.

For assay [1], the system named is Staphylococcus aureus subsp. aureus (ATCC29213). In words: MIC, broth microdilution (CLSI), Staphylococcus aureus subsp. aureus ATCC29213. The note with it: ATCC29213, Table 15, read-out: S. aureus ("wound") (MIC). The format is cell-based.
For assay [2], the system named is Escherichia coli (ATCC25922). Description: MIC, broth microdilution (CLSI), Escherichia coli ATCC25922. On the technique in general: Dilution methods test growth across graded concentrations, often in twofold steps.
Setting [3] is: ATCC25922, read-out: E. coli MIC, Table 15, NI = No inhibition.
Setting [4] is: ATCC25922, read-out: E. coli MIC.

What is called MIC is the lowest concentration found to suppress growth. Turning to `CCN(C)c1ccc2c(c1)Sc1cc(C(F)(F)F)cc(NCCCNCCN)c1N2.Cl.Cl` [compound 348, N1-(3-((2-aminoethyl)amino)propyl)-N7-ethyl-N7-methyl-3-(trifluoromethyl)-10H-phenothiazine-1,7-diamine hydrochloride], the MIC turned out to be 4 µg/mL in assay [1] and 32 µg/mL in assay [2] (setting [3]).

`Cl.Cl.NCCN1CCC(Nc2cc(C(F)(F)F)cc3c2Nc2ccc(N4CCC5(CCCC5)C4)cc2S3)CC1` [compound 322, N-(1-(2-aminoethyl)piperidin-4-yl)-7-(2-azaspiro [4.4]nonan-2-yl)-3-(trifluoromethyl)-10H-phenothiazin-1-amine hydrochloride]: the minimal inhibitory concentration (MIC) in assay [1] was determined as 1 µg/mL; in assay [2] (setting [3]), 4 µg/mL.

As to `NCCNCCCNc1cc(C(F)(F)F)cc2c1Nc1ccc(C3CCCC3)cc1S2` [compound 353, N1-(2-aminoethyl)-N3-(7-cyclopentyl-3-(trifluoromethyl)-10H-phenothiazin-1-yl) propane-1,3-diamine hydrochloride], the MIC was 2 µg/mL in assay [1] and 8 µg/mL in assay [2] (setting [4]).

On to `CC1CC(C)CN(c2ccc3c(c2)Sc2cc(C(F)(F)F)cc(NCCCNCCN)c2N3)C1.Cl` (stereo not drawn) [compound 346, N1-(2-aminoethyl)-N3-(7-(3,5-dimethylpiperidin-1-yl)-3-(trifluoromethyl)-10H-phenothiazin-1-yl) propane-1,3-diamine hydrochloride], for which the MIC stood at 4 µg/mL in assay [1] and 16 µg/mL in assay [2] (setting [3]).

Consider `CC1CCCN1c1ccc2c(c1)Sc1cc(C(F)(F)F)cc(NC3CCN(CCN)CC3)c1N2.Cl.Cl` (stereo not drawn) [compound 316, N-(1-(2-aminoethyl)piperidin-4-yl)-7-(2-methyl-pyrrolidin-1-yl)-3-(trifluoromethyl)-10H-phenothiazin-1-amine hydrochloride], for which the MIC in assay [1] was determined as 2 µg/mL; in assay [2] (setting [3]), 8 µg/mL.

Regarding `Cl.NCCN1CCC(Nc2cc(C(F)(F)F)cc3c2Nc2cc(Br)ccc2S3)CC1` [compound 352, N-(1-(2-aminoethyl)piperidin-4-yl)-8-bromo-3-(trifluoromethyl)-10H-phenothiazin-1-amine hydrochloride], the minimum inhibitory concentration (MIC) came to 4 µg/mL in assay [1] and 8 µg/mL in assay [2] (setting [3]).

For the molecule `NCCCN1c2ccncc2Sc2cc(-c3cc4ccccc4[nH]3)ccc21` [compound 267, 3-(8-(1H-indol-2-yl)-5H-benzo[b]pyrido[4,3-e] [1,4]thiazin-5-yl)propan-1-amine trifluoro acetic acid], the minimal inhibitory concentration (MIC) in assay [1] was 2 µg/mL (≈ 5.37 µM); in assay [2] (setting [4]) it was 16 µg/mL (≈ 43 µM).

As for `Cl.Cl.NCCN(CCN)CCN1CCC(Nc2cc(C(F)(F)F)cc3c2Nc2ccc(N4CCCC4)cc2S3)CC1` [compound 335, N1-(2-aminoethyl)-N1-(2-(4-((7-(pyrrolidin-1-yl)-3-(trifluoromethyl)-10H-phenothiazin-1-yl)amino)piperidin-1-yl)ethyl)ethane-1,2-diamine hydrochloride], the minimum inhibitory concentration (MIC) in assay [1] was 4 µg/mL; in assay [2] (setting [3]), 64 µg/mL.

`COC1CCCN(c2ccc3c(c2)Sc2cc(C(F)(F)F)cc(NC4CCN(CCN)CC4)c2N3)C1.Cl` (stereo not drawn) [compound 326, N-(1-(2-aminoethyl)piperidin-4-yl)-7-(3-methoxy-piperidin-1-yl)-3-(trifluoromethyl)-10H-phenothiazin-1-amine hydrochloride]: the minimal inhibitory concentration (MIC) was 8 µg/mL in assay [1] and 16 µg/mL in assay [2] (setting [3]).

As for `Cl.Cl.NCCN1CCC(Nc2cc(C(F)(F)F)cc3c2Nc2ccc(N4CCc5ccccc54)cc2S3)CC1` [compound 310, N-(1-(2-aminoethyl)piperidin-4-yl)-7-(indolin-1-yl)-3-(trifluoromethyl)-10H-phenothiazin-1-amine hydrochloride], the minimal inhibitory concentration (MIC) in assay [1] amounted to 8 µg/mL; in assay [2] (setting [3]) it was 128 µg/mL.

In the case of `NCCCN1c2ccc(N3CCNCC3)cc2Sc2cc(C(F)(F)F)ccc21` [compound 265, 3-(3-(piperazin-1-yl)-7-(trifluoromethyl)-10H-phenothiazin-10-yl)propan-1-amine hydrochloride], the minimum inhibitory concentration (MIC) in assay [1] worked out at 16 µg/mL; in assay [2] (setting [4]), 64 µg/mL.

On to `CC(=O)Nc1cc(C(F)(F)F)cc2c1Nc1ccc(N3CCCC3)cc1S2.Cl` [compound 328, N-(7-(pyrrolidin-1-yl)-3-(trifluoromethyl)-10H-phenothiazin-1-yl)acetamide hydrochloride], for which the minimum inhibitory concentration (MIC) was 16 µg/mL in assay [1] and > 128 µg/mL in assay [2] (setting [3]).

For `Cl.Cl.NCCN1CCC(Nc2cc(C(F)(F)F)cc3c2Nc2ccc(N4CCCCC4)cc2S3)CC1` [compound 289, N-(1-(2-aminoethyl)piperidin-4-yl)-7-(piperidin-1-yl)-3-(trifluoromethyl)-10H-phenothiazin-1-amine hydrochloride], the results for the minimum inhibitory concentration (MIC) in assay [1] and in assay [2] (setting [3]) were 4 µg/mL and 8 µg/mL, respectively.

With `NC1CCCC(C(=O)Nc2cc(C(F)(F)F)cc3c2Nc2ncccc2S3)C1` (stereo not drawn) [compound 263, 3-amino-N-(7-(trifluoromethyl)-10H-benzo[b]pyrido[2,3-e] [1,4]thiazin-9-yl)cyclohexane-1-carboxamide], the minimum inhibitory concentration (MIC) in assay [1] and in assay [2] (setting [3]) was 64 µg/mL (≈ 157 µM) throughout.

In the case of `Cl.NCCN1CCC(Nc2cc(C(F)(F)F)cc3c2Nc2ccc(N4CCC4)cc2S3)CC1` [compound 296, N-(1-(2-aminoethyl)piperidin-4-yl)-7-(azetidin-1-yl)-3-(trifluoromethyl)-10H-phenothiazin-1-amine hydrochloride], the MIC is 4 µg/mL in assay [1] and 8 µg/mL in assay [2] (setting [3]).

Turning to `CC1CCCN(c2ccc3c(c2)Sc2cc(C(F)(F)F)cc(NC(=O)CCNCCN)c2N3)C1.Cl.Cl` (stereo not drawn) [compound 308, 3-((2-aminoethyl)amino)-N-(7-(3-methyl-piperidin-1-yl)-3-(trifluoromethyl)-10H-phenothiazin-1-yl)propanamide hydrochloride], the minimal inhibitory concentration (MIC) in assay [1] worked out at 16 µg/mL; in assay [2] (setting [3]) it was 64 µg/mL.

In the case of `CC1CC(C)CN(c2ccc3c(c2)Sc2cc(N4CCN(CCN)CC4)ccc2N3CCCN)C1.Cl.Cl.Cl.Cl` (stereo not drawn) [compound 286, 3-(3-(4-(2-aminoethyl)piperazin-1-yl)-7-(3,5-dimethyl-piperidin-1-yl)-10H-phenothiazin-10-yl)propan-1-amine hydrochloride], the minimum inhibitory concentration (MIC) in assay [1] came out at 32 µg/mL; in assay [2] (setting [3]), 128 µg/mL.

On to `CCOC(=O)c1ccc2c(c1)Sc1cc(Br)ccc1N2CCCN` [compound 276, ethyl 10-(3-aminopropyl)-7-bromo-10H-phenothiazine-3-carboxylate], for which the minimum inhibitory concentration (MIC) stood at 4 µg/mL (≈ 9.82 µM) in assay [1] and 32 µg/mL (≈ 78.6 µM) in assay [2] (setting [3]).

With `Cl.Cl.Cl.NCCCN1c2ccc(N3CCCC3)cc2Sc2cc(N3CCN(CCN)CC3)ccc21` [compound 291, 3-(3-(4-(2-aminoethyl)piperazin-1-yl)-7-(pyrrolidin-1-yl)-10H-phenothiazin-10-yl)propan-1-amine hydrochloride], the minimum inhibitory concentration (MIC) in assay [1] is 16 µg/mL; in assay [2] (setting [3]) it was 128 µg/mL.

As for `Cl.Cl.NCCN1CCC(Nc2cc(C(=O)NNc3ccc(F)cc3)cc3c2Nc2ccccc2S3)CC1` [compound 280, 1-((1-(2-aminoethyl)piperidin-4-yl)amino)-N′-(4-fluorophenyl)-10H-phenothiazine-3-carbohydrazide hydrochloride], the results for the MIC in assay [1] and in assay [2] (setting [3]) were 16 µg/mL and 64 µg/mL, respectively.

Take `Cl.NCCN1CCC(Nc2cc(C(F)(F)F)cc3c2Nc2ccc(N4CCC5CCCC54)cc2S3)CC1` (stereo not drawn) [compound 340, N-(1-(2-aminoethyl)piperidin-4-yl)-7-(hexahydro-cyclopenta[b]pyrrol-1(2H)-yl)-3-(trifluoromethyl)-10H-phenothiazin-1-amine hydrochloride]: the minimal inhibitory concentration (MIC) stood at 4 µg/mL in assay [1] and 16 µg/mL in assay [2] (setting [3]).
